The NIST ThermoML archive (doi:10.1016/j.jct.2013.01.032)
± gives the expanded uncertainty stated by the source.

Conditions: 101.33 kPa, Liquid; for speed of sound: Sing-around technique in a fixed-path interferometer; for mass density: Vibrating tube method

Row | speed of sound (293.15 K) [m/s] | mass density (293.15 K) [kg/m3] | mass density (308.15 K) [kg/m3] | speed of sound (323.15 K) [m/s] | mass density (323.15 K) [kg/m3] | speed of sound (308.15 K) [m/s] | Compound
1 | 1230 ± 1 | 806.56 ± 0.18 | 794 ± 0.19 | 1120.3 ± 0.9 | 780.5 ± 0.19 | 1175.8 ± 0.9 | CCC(C)O (stereo not given) [butan-2-ol]
2 | 1223.9 ± 0.8 | 803.92 ± 0.14 | 791.84 ± 0.15 | 1122 ± 0.8 | 779.33 ± 0.16 | 1172.6 ± 0.8 | CCCO [propan-1-ol]
3 | 1256.2 ± 0.8 | 809.54 ± 0.14 | 798.01 ± 0.15 | 1155.7 ± 0.8 | 786.15 ± 0.15 | 1205.9 ± 0.8 | CCCCO [butan-1-ol]

Further lines, the compound ahead of its results:

Row | Compound | speed of sound (293.15 K) [m/s] | mass density (293.15 K) [kg/m3] | mass density (308.15 K) [kg/m3] | speed of sound (323.15 K) [m/s] | mass density (323.15 K) [kg/m3] | speed of sound (308.15 K) [m/s]
4 | CC(C)O [propan-2-ol] | 1156.7 ± 0.8 | 785.1 ± 0.15 | 772.31 ± 0.16 | 1050.8 ± 0.7 | 758.7 ± 0.17 | –
5 | CCCCCO [pentan-1-ol] | 1292.7 ± 1.3 | 814.53 ± 0.31 | 803.52 ± 0.31 | 1192.7 ± 1.3 | 792.15 ± 0.31 | 1242.4 ± 1.3
6 | CCCCn1cc[n+](C)c1.O=S(=O)([O-])C(F)(F)F [1-butyl-3-methylimidazolium trifluoromethanesulfonate] | 1402.9 ± 1.3 | 1303.7 ± 0.6 | 1291.7 ± 0.6 | 1336.5 ± 1.3 | 1279.9 ± 0.6 | 1369.1 ± 1.3
